One data set concerns the target T1, lysyl oxidase (Bos taurus, UniProt P33072).
T1 construct: The enzyme was isolated from bovine aortas; from tissue; host or cells: bovine aorta
T1 sequence (P33072 170-418): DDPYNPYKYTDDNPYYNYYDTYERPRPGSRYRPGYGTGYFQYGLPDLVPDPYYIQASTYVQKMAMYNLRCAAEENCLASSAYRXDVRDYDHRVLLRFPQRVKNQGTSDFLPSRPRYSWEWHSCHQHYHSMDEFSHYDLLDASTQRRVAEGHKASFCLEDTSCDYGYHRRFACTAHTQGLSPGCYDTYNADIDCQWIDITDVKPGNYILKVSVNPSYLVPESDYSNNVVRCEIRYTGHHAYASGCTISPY
Description: Test for lysyl oxidase-inhibitory effect (homovanillic acid/horseradish peroxidase fluorescence). It is filed as biochemical. As to conditions: enzyme from bovine aortas, 15 minutes preincubation, pH 8.2; read-out: IC50 (inhibition of lysyl oxidase). The protocol: 1. Test for Lysyl Oxidase-inhibitory Effect:
The enzyme was isolated from bovine aortas in a modification of a method of Kagan et al. [Biochem. J. 177, 203-214 (1979)] by extraction with phosphate buffer containing urea, followed by precipitation and chromatography on DEAE-Sephadex.
The test solution (total volume 200 μl) is composed of 1.5 mM homovanillinic acid, 5 mM 1,5-diaminopentane, 1 unit of horseradish peroxidase and 1.5 M urea in 50 mM sodium borate buffer of pH 8.2. The enzyme was preincubated with the compound to be tested for 15 minutes; the reaction was started by adding diaminopentane and homovanillin/horseradish peroxidase. The fluorescence of the homovanillin dimer which formed was measured with excitation at 315 nm and emission at 425 nm. This test arrangement is a modification of the method of Trackman et al. [Anal. Biochem. 113, 336-341 (1981)].
The IC50 as a measure of the inhibition of lysyl oxidase is found by testing various concentrations of substance and using the concentration-effect plots.

In data set [1] the test system is serum-induced hepatic fibrosis in rats. As to the kind of experiment: Model of serum-induced hepatic fibrosis, liver collagen content (4-hydroxyproline). Type of data set: in vivo, rat. Conditions: serum-treated female Sprague-Dawley rats, 3 mg/kg p.o. o.d.; vehicle 2.070, intact 0.577; P <0.01. The protocol:
c) Model of Serum-induced Hepatic Fibrosis: A septal fibrosis can be induced in rats also by repeated injection of heterologous serum. For this purpose, 0.5 ml of sterile-filtered porcine serum is administered i.p. to each animal twice a week [Bhunchet and Wake, Hepatology 16, 1452-73 (1992)]. The experiments were carried out with female Sprague-Dawley rats (200-220 g). After 6-8 weeks, the septal fibrosis is histologically manifest and can also be detected through an increase in the liver hydroxyproline content. b) Collagen Content: The total collagen content was estimated by means of the tissue 4-hydroxyproline concentration. The method of Prockop and Udenfried [D. J. Prockop and S. Udenfried, A specific method for the analysis of hydroxyproline in tissues and urine, Anal. Biochem. 1, 228-239 (1960)] in modified form was used: liver samples with a wet weight of 60-90 mg were dried and then hydrolyzed in 6 N hydrochloric acid at 100° C. for 17 hours. The hydrolyzate was dried by evaporation and reconstituted in 5 ml of deionized water. […] After incubation at 35° C. for 3 hours, the absorption was measured at 573 nm. […]

In data set [2] the test system is hepatic fibrosis following bile duct ligature in rats. Description: Model of bile duct ligature, histological morphometry (picrosirius red). It is filed as in vivo, rat. As to conditions: 15 mg/kg p.o. b.i.d. The protocol:
b) Model of Bile Duct Ligature:
The experiments were carried out with female Sprague-Dawley rats (200-220 g). In order to generate chronic fibrosis, the bile duct (common hepatic duct) was doubly ligated in a surgical procedure. Ethibloc® occlusion emulsion (Ethicon, Norderstedt, Germany), a mixture of prolamine and ethanol, was instilled retrogradely into the biliary system [J. Kountouras, B. Billing, P. Scheuer, Prolonged bile obstruction: A new experimental model for cirrhosis in the rat, Br. J. Exp. Pathol. 65, 305-311 (1984); G. Boigk, L. Stroedter, H. Herbst, J. Waldschmidt, E. O. Riecken, D. Schuppan, Silymarin retards collagen accumulation in early and advanced biliary fibrosis secondary to complete bile duct obliteration in rats, Hepatology 26, 643-649 (1997)]. […] The animals were sacrificed and investigated three weeks after the surgical procedure.
a) Histological Assessments/Morphometry:
Standardized transverse cylinders of liver tissue (approx. 10×2 mm) were cut out of the right anterior lobe of each rat liver. Frozen sections were stained with 0.1% picrosirius red solution to detect scar collagen associated with hepatic fibrosis. The contrast was increased by counterstaining with fast green. The extent of hepatic fibrosis was found as a percentage of the part stainable with picrosirius red in each section. […]

Data set [3] concerns hepatic fibrosis resulting from chronic administration of carbon tetrachloride in rats. As to the kind of experiment: Model of chronic carbon tetrachloride intoxication, liver collagen content (4-hydroxyproline). Type of data set: in vivo, rat. Conditions: CCl4-treated female Sprague-Dawley rats, 30 mg/kg p.o. o.d., 6 weeks; vehicle 1.921, intact 0.504; P =0.059 vs. vehicle. The text has this:
a) Model of Chronic Carbon Tetrachloride Intoxication:
Chronic carbon tetrachloride (CCl4) treatment is a standard method for generating hepatic fibrosis of nonviral origin and subsequent cirrhosis. It is generally accepted as a model of hepatic fibrosis and cirrhosis in humans [E. McLean, A. McLean, P. Sutton, Instant Fibrosis: An improved method for producing cirrhosis of the liver in rats by simultaneous administration of carbon tetrachloride and phenobarbitone, Br. J. Exp. Pathol. 50, 502-506 (1969)].
Female Sprague-Dawley rats (200-220 g) were employed. In order to achieve maximum microsomal metabolization of the CCl4, the animals received isoniazid in the drinking water (1 g/l) for one week before starting the administration of carbon tetrachloride. CCl4 was administered orally each fifth day in a dose of 0.2 ml/100 g of bodyweight in a 1:1 mixture with mineral oil. […] Necropsy was performed 6 weeks after starting the treatment.
The total collagen content was estimated by means of the tissue 4-hydroxyproline concentration. […] After incubation at 35° C. for 3 hours, the absorption was measured at 573 nm. […]

A value given as a limit tells only on which side of the number the result lay.

In the case of `CCOc1c(N2CCOCC2)cnn(C)c1=O` [4-ethoxy-2-methyl-5-morpholino-3(2H)-pyridazinone, reference compound], the IC50 on lysyl oxidase is above 4000 nM.
The same measure, in the same setting: the value for `CCN1CCN(c2cnn(-c3ccc(C)cc3)c(=O)c2Oc2ccc(-c3ccc(O)cc3)cc2)CC1` [Ex. 5, 5-(4-Ethyl-1-piperazinyl)-4-[(4′-hydroxy-1,1′-biphenyl-4-yl)oxy]-2-(4-methylphenyl)-3(2H)-pyridazinone] was 17 nM.
The same measure, in the same setting: the value for `CS(=O)(=O)N1CCN(c2cnn(-c3ccc(Cl)cc3)c(=O)c2Oc2ccc(-c3ccc(F)c(CN)c3)cc2)CC1` [Ex. 8, 4-{[3′-(Aminomethyl)-4′-fluoro-1,1′-biphenyl-4-yl]oxy}-2-(4-chlorophenyl)-5-[4-(methylsulfonyl)-1-piperazinyl]-3(2H)-pyridazinone] was 7 nM; that for `O=c1c(Oc2ccc(-c3ccccc3)cc2)c(N2CCNCC2)cnn1-c1ccc(Cl)cc1` [Ex. 12, 4-(1,1′-Biphenyl-4-yloxy)-2-(4-chlorophenyl)-5-(1-piperazinyl)-3(2H)-pyridazinone] was 3 nM; that for `O=c1c(Oc2ccc(-c3ccc(F)cc3)cc2)c(N2CCC(CO)CC2)cnn1-c1ccc(Cl)cc1` [Ex. 25, 2-(4-Chlorophenyl)-4-[(4′-fluoro-1,1′-biphenyl-4-yl)oxy]-5-[4-(hydroxymethyl)-1-piperidinyl]-3(2H)-pyridazinone] was 5 nM.
In the case of `CN1CCN(c2cnn(-c3ccc(Cl)cc3)c(=O)c2Oc2ccc(-c3ccccc3)cc2)CC1.Cl` [Ex. 34], the melting point was 162 °C. The IC50 at lysyl oxidase was determined as 9 nM. For the same compound, the “4-Hydroxyproline content: average in mg/g dry weight” value in data set [1] is reported as 1.293 mg/g dry weight.
For the compound `O=c1c(Oc2ccc(-c3ccc(O)cc3)cc2)c(-n2ccnc2)cnn1-c1ccc(Cl)cc1` [Ex. 81], the IC50 at lysyl oxidase was 7 nM.
Take `O=c1c(Oc2ccc(-c3ccccc3)cc2)c(-n2ccnc2)cnn1-c1ccc(Cl)cc1` [Ex. 82]: at lysyl oxidase, the IC50 came to 11 nM. The “Proportionate area stainable with picrosirius red: average in %” value in data set [2] (bile duct ligated female Sprague-Dawley rats, three weeks, vehicle 7.4, sham 0.21, P <0.05 vs. vehicle) came to 4.98%. In addition, the inhibition in fibrosis entry in data set [2] (bile duct ligated rats, worked out from Table 2) is listed as “approx. 34%”. The “4-Hydroxyproline content: average in mg/g dry weight” value in data set [3] worked out at 1.260 mg/g dry weight.
With `CC(=O)NCc1cc(-c2ccc(Oc3c(N4CCNCC4)cnn(-c4ccc(Cl)cc4)c3=O)cc2)ccc1F` [Ex. 176], on lysyl oxidase, the IC50 turned out to be 10 nM.
With `O=c1c(Oc2ccc(-c3ccc(F)cc3)cc2)c(-n2ccnc2)cnn1-c1ccc([N+](=O)[O-])cn1` [compound 71], the melting point worked out at 186 °C.
In the case of `CCOC(=O)c1ccc(-n2ncc(-n3ccnc3)c(Oc3ccc(-c4ccccc4)cc3)c2=O)cc1` [compound 72], the melting point is 151 °C.
Still for that read-out and setting: the figure for `O=c1c(Oc2ccc(-c3ccccc3)cc2)c(-n2ccnc2)cnn1-c1cccc(F)c1` [compound 73] is 148 °C.
Turning to `O=c1c(Oc2ccc(-c3ccccc3)cc2)c(-n2ccnc2)cnn1-c1ccc(F)cc1` [compound 74], the melting point amounted to 119 °C.
Regarding `Cc1ccc(-n2ncc(-n3ccnc3)c(Oc3ccc(-c4ccc(C#N)cc4)cc3)c2=O)cc1` [compound 76], the melting point came to 220 °C.
In turn, `Cc1ccc(-n2ncc(-n3ccnc3)c(Oc3ccc(-c4ccccc4)cc3)c2=O)cc1` [compound 77] showed a melting point of 177 °C.
As for `O=c1c(Oc2ccc(-n3cccc3)cc2)c(-n2ccnc2)cnn1-c1ccc(Cl)cc1` [compound 78], the melting point was 188 °C.
Compound `N#Cc1ccc(-c2ccc(Oc3c(-n4ccnc4)cnn(-c4ccc(Cl)cc4)c3=O)cc2)cc1` [compound 80] showed a melting point of 276 °C.
Take `CS(=O)(=O)Nc1ccc(-c2ccc(Oc3c(-n4ccnc4)cnn(-c4ccc(Cl)cc4)c3=O)cc2)cc1` [compound 83]: the melting point stood at 180 °C.
Regarding `N#CCCN` [β-Aminopropionitrile (BAPN), reference compound], the IC50 at lysyl oxidase is 10000 nM.

The term IC50 denotes the concentration at which inhibition is half-maximal. By melting point is commonly meant the temperature, or range, at which the solid turns liquid.

The values are drawn from patent US7320977B2, “Substituted 2-phenyl-3(2h)-pyridazinones” (Bayer Healthcare AG, priority 2002, dated 2008).
